According to US10064417B2, “Milk filtration devices and methods for filtering” (Janssen Pharmaceutica NV, priority 2015, dated 2018):
Like-named read-outs stand apart in the source and are kept apart here.

How the values were obtained:
[1] = cited from earlier work
[2] = cited from earlier work; remark: listed apart in the source
[3] = cited from earlier work; remark: listed apart in the source
[4] = Fraction of ketamine in the neutral state at various pHs; type: physicochemical; conditions: mother's milk, pH about 7.2-7.4, estimated from Table I
orosomucoid = conditions: human blood; cited from earlier work
[5] = cited from earlier work; remark: listed apart in the source

## N=C(N)NCCC[C@H](N)C(=O)O [Arginine]
[1]
  Log P: −1.7

## N[C@@H](Cc1c[nH]cn1)C(=O)O [Histidine]
[2]
  pKa: 9.1

## CNC1(c2ccccc2Cl)CCCCC1=O (stereo not shown) [Ketamine]
[3]; pH 7.1
  Fraction of neutral ketamine: 28.0%
[3]; pH 7.4
  Fraction of neutral ketamine: 44.3%
[3]; pH 7.5
  Fraction of neutral ketamine: 50.0%
[4]
  neutral fraction of ketamine in milk: 30-40%

## NCCCC[C@H](N)C(=O)O [Lysine]
[1]
  Log P: −3.2

## O=C(O)[C@@H]1CCCN1 [Proline]
[1]
  Log P: −2.6

## Cc1ncc(CO)c(CO)c1O [Pyridoxine]
[2]
  pKa: 8.7

## Cc1cc2nc3c(=O)[nH]c(=O)nc-3n(C[C@H](O)[C@H](O)[C@H](O)CO)c2cc1C [Riboflavin]
[1]
  Log P: −0.92

## CN[C@H]1CC[C@@H](c2ccc(Cl)c(Cl)c2)c2ccccc21 [Sertraline]
[1]
  Log P: 5.10
orosomucoid
  bound to orosomucoid: 95%
[5]
  bound in mother's milk: about 80%

## NCCS(=O)(=O)O [Taurine]
[1]
  Log P: −1.9
[2]
  pKa: 9.0
[2]; room temperature
  pKa: about 9

## Cc1ncc(C[n+]2csc(CCO)c2C)c(N)n1 [Thiamine]
[1]
  Log P: −3.1
[1]; listed as thiamine
  Log P: ~−3

## CNCCC(Oc1ccc(C(F)(F)F)cc1)c1ccccc1 (stereo not shown) [fluoxetine, reference compound]
[2]; room temperature
  pKa: about 10.3
